According to publication PMC12257394, “Design, Synthesis, and Biological Evaluation of Ferrocenyl–Cyclo-(Gly‑L‑Pro) Hybrids Sensitizing Multidrug-Resistant Cancer Cells to Anticancer Agents” (ACS Medicinal Chemistry Letters, 2025):
“Also recorded” adds a separate entry of the source.

Legend:
SW620V cells = assay: Synergy determination (Bliss model, SynergyFinder), SW620V; format: cell-based, human; conditions: drug vincristine + additive; for synergy score: Bliss model
Description: (§1) In an ideal setting, the effect of cell exposure to a combination of a chemotherapeutic and an MDR inhibitor should be synergistic. […] The highest synergy scores identified an optimal concentration range where the combination exerted its maximal effect. […] In cisplatin-resistant SW620C cells, the low or lack of synergy observed for most compounds may be due to the additive effects of cisplatin and 4 rather than a true synergistic interaction. […]
(§2) To evaluate the potential interactions between putative ABC inhibitors and anticancer drugs, we utilized the Bliss independence model, as implemented in the SynergyFinder web application.13, 14 Synergy scores and the most synergistic area scores were calculated based on the normalized dose–response matrices. A synergy score below −10 indicates likely […]
(§3) above 10 is indicative of likely synergistic interactions.
(§4) All experiments were performed at least three times, and the data were statistically analyzed

SW620M cells = assay: Synergy determination (Bliss model, SynergyFinder), SW620M; format: cell-based, human; conditions: drug methotrexate + additive; for synergy score: Bliss model
Description: as §1, §2, §3, §4

ABCG2 = target: T1, ABCG2 (Homo sapiens, UniProt Q9UNQ0); assay: 5D3 antibody-binding assay in SW620Mito cells; format: cell-based; conditions: 1 μM compound, n = 3
T1 construct: ABCG2-overexpressing SW620C and SW620Mito; endogenous in cells; host or cells: SW620Mito (mitoxantrone-resistant variant of SW620, developed in the authors' laboratory by drug selection)
T1 sequence (Q9UNQ0 1-655): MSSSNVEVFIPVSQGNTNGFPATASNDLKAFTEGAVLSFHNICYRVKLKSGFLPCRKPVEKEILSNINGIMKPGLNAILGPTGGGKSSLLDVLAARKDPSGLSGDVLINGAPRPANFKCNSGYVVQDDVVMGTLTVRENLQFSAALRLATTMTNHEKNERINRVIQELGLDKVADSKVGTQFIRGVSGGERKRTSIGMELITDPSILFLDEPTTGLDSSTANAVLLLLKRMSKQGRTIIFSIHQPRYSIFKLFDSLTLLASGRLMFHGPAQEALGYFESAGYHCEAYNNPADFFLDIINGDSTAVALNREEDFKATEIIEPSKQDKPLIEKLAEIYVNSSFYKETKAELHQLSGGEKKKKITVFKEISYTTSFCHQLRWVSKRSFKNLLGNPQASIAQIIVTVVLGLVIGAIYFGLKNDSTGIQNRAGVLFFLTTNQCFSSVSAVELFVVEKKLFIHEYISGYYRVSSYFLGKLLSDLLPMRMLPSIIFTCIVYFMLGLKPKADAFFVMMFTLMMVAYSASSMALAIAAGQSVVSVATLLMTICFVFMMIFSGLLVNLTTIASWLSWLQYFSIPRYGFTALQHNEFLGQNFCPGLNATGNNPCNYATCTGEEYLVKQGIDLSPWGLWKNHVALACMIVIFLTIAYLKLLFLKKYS
Description: (§5) To obtain deeper insight into the direct interactions between the investigated inhibitors and transporter protein molecules, we used two commercially available antibodies, UIC-2 and 5D3, which recognize the active forms of ABCB1 and ABCG2, respectively. These antibodies specifically recognize epitopes that are exposed when the transporter interacts with the allocrite.
(§6) A total of 106 parental SW620 cells expressing low level of ABC proteins or their multidrug - resistant variant SW620V cells (overexpressing ABCB1) or SW620Mito cells (overexpressing ABCG2) were suspended in 1 mL of complete culture medium supplemented with solvent (DMSO), a positive control (vincristine/mitoxantrone), or an investigated compound at a final concentration of 1 µM. APC-conjugated UIC2 anti-ABCB1/FITC-conjugated 5D3 anti-ABCG2 antibody or the respective isotype control was then added to a final concentration of 5 µg/mL, and the samples were incubated at 37°C for 60 min. Then, the cells were washed three times (100 × g for 10 min) with fresh medium and analyzed using a FACSymphony A1 (Becton, Dickinson and Company, New Jersey, USA) instrument. Results were expressed as a difference of median of fluorescence of a given sample (specific binding of antibody) and the respec tive isotype control (unspecific binding). […]
as §4

ABCB1 = target: T2, ABCB1 (Homo sapiens, UniProt P08183); assay: UIC-2 antibody-binding assay in SW620V cells; format: cell-based; conditions: 1 μM compound, n = 3
T2 construct: ABCB1-overexpressing SW620V cells; endogenous in cells; host or cells: SW620V (vincristine-resistant variant of SW620, developed in the authors' laboratory by drug selection)
T2 sequence (P08183 whole entry): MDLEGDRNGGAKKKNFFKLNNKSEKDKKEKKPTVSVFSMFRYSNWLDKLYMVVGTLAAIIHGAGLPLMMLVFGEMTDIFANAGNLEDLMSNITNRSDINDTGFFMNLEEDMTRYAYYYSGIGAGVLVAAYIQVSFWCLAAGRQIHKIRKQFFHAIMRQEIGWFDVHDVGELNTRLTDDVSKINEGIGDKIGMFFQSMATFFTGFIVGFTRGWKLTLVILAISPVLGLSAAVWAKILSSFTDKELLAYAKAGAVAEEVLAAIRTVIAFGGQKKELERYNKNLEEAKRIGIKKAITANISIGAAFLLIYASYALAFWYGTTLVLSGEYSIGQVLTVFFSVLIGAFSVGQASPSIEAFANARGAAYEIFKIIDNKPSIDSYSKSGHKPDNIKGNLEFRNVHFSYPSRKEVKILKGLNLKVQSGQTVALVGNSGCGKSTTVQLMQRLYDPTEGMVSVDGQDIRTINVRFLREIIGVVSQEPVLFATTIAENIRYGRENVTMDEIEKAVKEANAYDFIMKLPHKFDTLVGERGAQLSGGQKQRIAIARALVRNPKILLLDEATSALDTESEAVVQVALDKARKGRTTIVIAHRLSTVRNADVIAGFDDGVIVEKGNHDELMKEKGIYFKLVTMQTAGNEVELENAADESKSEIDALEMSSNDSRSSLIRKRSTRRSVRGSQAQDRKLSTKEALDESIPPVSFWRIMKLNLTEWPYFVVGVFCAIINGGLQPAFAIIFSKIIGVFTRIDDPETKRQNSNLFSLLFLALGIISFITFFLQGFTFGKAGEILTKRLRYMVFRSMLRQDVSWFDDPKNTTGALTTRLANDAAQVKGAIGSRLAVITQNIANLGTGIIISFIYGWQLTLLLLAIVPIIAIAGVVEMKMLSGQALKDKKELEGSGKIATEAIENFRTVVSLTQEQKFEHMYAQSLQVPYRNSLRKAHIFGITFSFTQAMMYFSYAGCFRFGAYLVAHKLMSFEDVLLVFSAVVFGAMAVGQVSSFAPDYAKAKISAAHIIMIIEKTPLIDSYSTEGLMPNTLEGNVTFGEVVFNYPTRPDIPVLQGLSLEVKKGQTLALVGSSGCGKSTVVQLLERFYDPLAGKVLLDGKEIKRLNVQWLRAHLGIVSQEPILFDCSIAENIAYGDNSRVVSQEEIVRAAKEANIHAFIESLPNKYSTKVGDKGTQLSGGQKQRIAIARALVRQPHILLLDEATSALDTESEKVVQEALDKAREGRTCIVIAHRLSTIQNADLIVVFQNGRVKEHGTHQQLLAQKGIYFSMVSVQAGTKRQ
Description: as §5, §6, §4

[1] = Neutral red uptake viability assay, SW620E; format: cell-based, human; conditions: human, SW620E cells (etoposide-resistant), 72 h, n = 3, read-out: Cytotoxic activity IC50 (95% CI)
Description: To evaluate this aspect, we investigated the viability of SW620 colon cancer cells and their multidrug-resistant variants (overexpressing ABCB1, ABCC1, and ABCG2) exposed to 1 and 10 μM 4a–e using a neutral red uptake assay (Table ). In general, compounds 4a–e exerted little or no cytotoxic effect on either SW620 or multidrug-resistant sublines even at 10 μM, with the remarkable exception of SW620C (cisplatin-selected variant of SW620) cells, which turned out to be relatively susceptible toward ferrocenyl 4a–c. […] This trend may reflect steric or electronic contributions to cellular uptake or interaction with intracellular targets. […] However, since E/Z isomeric data are currently available only for compound 4c, this hypothesis requires validation. To quantify this effect, IC50 values were determined (Table ). […]
The normal lung fibroblast MRC-5 and colorectal adenocarcinoma SW620 cell lines used in this experiment were purchased from American Type Culture Collection (USA) via LGC […]
Standards. Multidrug-resistant variants of SW620 cells were developed in our laboratory as described previously.10, 11 All cells were cultured under standard conditions (37°C, 5% CO2, 100% humidity) in high-glucose DMEM supplemented with GlutaMaxTM, HEPES (ThermoFisher Scientific, USA), and 10% fetal bovine serum (EURx, Poland). Cells were routinely tested for potential Mycoplasma contamination using the MycoProbe Mycoplasma Detection kit (R&D System, USA).
In total, 104 cells in 100 µL of complete medium were plated per well of a 96-well plate and left overnight to allow cells to adhere to the surface. Then, the cells were exposed to a desired concentration of tested compound(s). Stock solutions were prepared in DMSO and used immediately. The final DMSO concentration was constant and nontoxic (0.1% v/v). After 70-h incubation, neutral red was added to the final concentration of 1 mM. After another 2 h, the medium was aspirated, and cells were washed twice with PBS. Dye was released using 100 µL of a solubilizer (1% acetic acid in 50% ethanol) on an orbital shaker (10 min). Absorbance was read at 540 nm using EnVision Multilabel Plate Reader (Perkin Elmer, USA). Results were expressed as % of control. The IC50 parameters were calculated using GraphPad Prism version 10 (GraphPad Software, Boston, Massachusetts USA). […]
All experiments were performed in triplicate (n = 3).

SMILES	most synergistic area score (SW620V cells)	synergy score (SW620V cells)	most synergistic area score (SW620M cells)	synergy score (SW620M cells)	5D3 antibody binding to ABCG2 (ABCG2)	UIC-2 antibody binding to ABCB1 (ABCB1)	IC50 at 72 h [1]
O=C1N/C(=C\c2ccccc2-[c-]2cccc2)C(=O)N2CCC[C@@H]12.[Fe+2].c1cc[cH-]c1 [(S,Z)-4b]	27.24	7.15	1.57	–5.03	recognized as ABCG2 allocrites	binding patterns expected for ABCB1 allocrites; also recorded: enhance UIC-2 antibody binding	
O=C1N/C(=C/c2ccccc2)C(=O)N2CCC[C@@H]12 [(S,E)-4e]							> 100 µM
O=C1N/C(=C\[c-]2cccc2)C(=O)N2CCC[C@@H]12.[Fe+2].c1cc[cH-]c1 [(S,Z)-4a]	15.88	4.27	3.56	–3.78	recognized as ABCG2 allocrites	binding patterns expected for ABCB1 allocrites	
O=C1N/C(=C/c2cccc(-[c-]3cccc3)c2)C(=O)N2CCC[C@@H]12.[Fe+2].c1cc[cH-]c1 [(S,E)-4c]			0.00	–2.83	no detectable interaction	no detectable interaction	
O=C1N/C(=C\c2ccc(-[c-]3cccc3)cc2)C(=O)N2CCC[C@@H]12.[Fe+2].c1cc[cH-]c1 [(S,Z)-4d]	24.93	13.6	0.00	–5.20	recognized as ABCG2 allocrites	binding patterns expected for ABCB1 allocrites; also recorded: enhance UIC-2 antibody binding	
O=C1N/C(=C\c2ccccc2)C(=O)N2CCC[C@@H]12 [(S,Z)-4e]							> 100 µM
